Counter-ions that a name gives are not always drawn.
How the values were obtained:
Assay type in all cases: cell-based
adenosine 3 receptor = biological target: T1, adenosine 3 receptor (Homo sapiens, UniProt P0DMS8); experiment: Agonist activity against adenosine 3 receptor (CHO cells, forskolin-enhanced cAMP/SPAP reporter); settings: CHO cells transfected with human receptor; forskolin-enhanced cAMP via SPAP; mean of all the versions tested
T1 sequence (P0DMS8 1-318): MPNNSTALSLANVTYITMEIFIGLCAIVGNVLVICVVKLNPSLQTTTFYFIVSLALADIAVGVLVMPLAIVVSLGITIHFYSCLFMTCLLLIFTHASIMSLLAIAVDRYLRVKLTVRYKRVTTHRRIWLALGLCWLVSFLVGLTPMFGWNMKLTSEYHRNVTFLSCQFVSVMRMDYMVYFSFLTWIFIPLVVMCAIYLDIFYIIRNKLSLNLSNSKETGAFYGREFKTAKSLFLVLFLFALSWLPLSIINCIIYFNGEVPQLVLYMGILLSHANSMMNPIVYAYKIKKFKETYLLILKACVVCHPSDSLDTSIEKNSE
Procedure: (§1) (1) Agonist activity against adenosine 2a, adenosine 1 and adenosine 3 receptor subtypes.
(§2) The effect of test compounds was determined by their effects on basal levels of cAMP (A2a) or on forskolin-enhanced cAMP (A1 and A3) as reflected by changes in levels of SPAP.

adenosine 2a receptor = adenosine 2a receptor (Homo sapiens, UniProt P29274); experiment: Agonist activity against adenosine 2a receptor (CHO cells, cAMP/SPAP reporter); settings: CHO cells transfected with human receptor; basal cAMP via SPAP; mean of all the versions tested
Procedure: as §1, §2

adenosine 1 receptor = biological target: T2, adenosine 1 receptor (Homo sapiens, UniProt P30542); experiment: Agonist activity against adenosine 1 receptor (CHO cells, forskolin-enhanced cAMP/SPAP reporter); settings: CHO cells transfected with human receptor; forskolin-enhanced cAMP via SPAP; mean of all the versions tested
T2 sequence (P30542 1-326): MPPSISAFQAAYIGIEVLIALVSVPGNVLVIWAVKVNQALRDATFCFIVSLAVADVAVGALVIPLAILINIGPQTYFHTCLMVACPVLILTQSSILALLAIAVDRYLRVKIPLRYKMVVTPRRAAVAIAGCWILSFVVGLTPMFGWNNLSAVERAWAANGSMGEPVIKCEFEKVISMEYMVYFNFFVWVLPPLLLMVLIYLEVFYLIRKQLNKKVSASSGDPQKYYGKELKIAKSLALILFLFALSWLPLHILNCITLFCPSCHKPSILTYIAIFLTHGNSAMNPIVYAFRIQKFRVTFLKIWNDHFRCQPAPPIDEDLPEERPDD
Procedure: as §1, §2

Sequence of adenosine 2a receptor (P29274 whole entry): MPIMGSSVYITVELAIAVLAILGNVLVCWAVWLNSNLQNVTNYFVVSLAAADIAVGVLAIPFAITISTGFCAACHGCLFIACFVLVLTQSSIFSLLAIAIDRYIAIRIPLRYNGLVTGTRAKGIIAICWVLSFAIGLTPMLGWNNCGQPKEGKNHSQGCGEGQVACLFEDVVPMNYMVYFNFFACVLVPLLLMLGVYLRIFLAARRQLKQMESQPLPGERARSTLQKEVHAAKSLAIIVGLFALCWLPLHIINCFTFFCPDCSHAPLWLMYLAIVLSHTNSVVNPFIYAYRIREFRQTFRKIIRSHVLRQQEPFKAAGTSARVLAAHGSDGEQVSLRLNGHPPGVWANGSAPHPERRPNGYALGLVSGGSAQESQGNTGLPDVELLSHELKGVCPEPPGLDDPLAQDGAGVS

Molecule	A3 EC50 as a ratio of that of NECA (adenosine 3 receptor)	A2a EC50 as a ratio of that of NECA (adenosine 2a receptor)	A1 EC50 as a ratio of that of NECA (adenosine 1 receptor)
(2R,3R,4S,5R)-2-[6-Cyclopentylamino-2-(2-pyrrolidin-1-yl-ethylamino)-purin-9-yl]-5-(2-methyl-2H-tetrazol-5-yl)-tetrahydro-furan-3,4-diol bis(Formate) [Example 112]	>315	2.19	472.30
Cn1nnc(C2OC(n3cnc4c(NC5CCCC5)nc(NCCN5CCCCC5)nc43)C(O)C2O)n1.O=CO.O=CO [Example 25, (2R,3R,4S,5R)-2-[6-Cyclopentylamino-2-(2-piperidin-1-yl-ethylamino)-purin-9-yl]-5-(2-methyl-2H-tetrazol-5-yl)-tetrahydro-furan-3,4-diol Diformate]	>388	0.56	211.8
(2R,3R,4S,5R)-2-[6-(1-Ethyl-propylamino)-2-(2-piperidin-1-yl-ethylamino)-purin-9-yl]-5-(2-methyl-2H-tetrazol-5-yl)-tetrahydro-furan-3,4-diol Diformate [Example 24]	>157	0.36	>4798
CCn1nnc(C2OC(n3cnc4c(NCc5cccc(I)c5)nc(NC5CCNC5)nc43)C(O)C2O)n1 [Example 23, (2R,3S,4R,5R)-2-(2-Ethyl-2H-tetrazol-5-yl)-5-[6-(3-iodo-benzylamino)-2-(pyrrolidin-3R-ylamino)-purin-9-yl]-tetrahydro-furan-3,4-diol Diformate]	>336	0.8	159
CC(C)n1nnc([C@H]2O[C@@H](n3cnc4c(NCCc5ccccc5)nc(NCCc5cn(C)cn5)nc43)[C@H](O)[C@@H]2O)n1.O=CO [Example 57, (2R,3S,4R,5R)-2-(2-Isopropyl-2H-tetrazol-5-yl)-5-{2-[2-(1-methyl-1H-imidazol-4-yl)-ethylamino]-6-phenethylamino-purin-9-yl}-tetrahydro-furan-3,4-diol Formate]	>362	2.42	376.10
Cn1cnc(CCNc2nc(NCCC3CCCCC3)c3ncn([C@@H]4O[C@H](c5nnn(C)n5)[C@@H](O)[C@H]4O)c3n2)c1.O=CO [Example 31, (2R,3R,4S,5R)-2-{6-(2-Cyclohexyl-ethylamino)-2-[2-(1-methyl-1H-imidazol-4-yl)-ethylamino]-purin-9-yl}-5-(2-methyl-2H-tetrazol-5-yl)-tetrahydro-furan-3,4-diol Formate]	>100	0.49	>=3680
CCn1nnc([C@H]2O[C@@H](n3cnc4c(NCc5ccccc5)nc(NCCc5cn(C)cn5)nc43)[C@H](O)[C@@H]2O)n1 [Example 5, (2R,3R,4S,5R)-2-{6-Benzylamino-2-[2-(1-methyl-1H-imidazol-4-yl)-ethylamino]-purin-9-yl}-5-(2-ethyl-2H-tetrazol-5-yl)-tetrahydro-furan-3,4-diol]	>181	0.76	700.4
CCn1nnc([C@H]2O[C@@H](n3cnc4c(NCC(c5ccccc5)c5ccccc5)nc(N[C@H]5CC[C@H](N)CC5)nc43)[C@H](O)[C@@H]2O)n1 (relative stereo) [Example 1, rel-(2R,3R,4S,5R)-2-[2-(trans-4-Amino-cyclohexylamino)-6-(2,2-diphenylethylamino)-purin-9-yl]-5-(2-ethyl-2H-tetrazol-5-yl)-tetrahydro-furan-3,4-diol]	>549	0.53	89.3
CC(=O)O.CCC(CC)Nc1nc(NCCc2cn(C)cn2)nc2c1ncn2[C@@H]1O[C@H](c2nnn(CC)n2)[C@@H](O)[C@H]1O [Example 6, (2R,3R,4S,5R)-2-{6-(1-Ethyl-propylamino)-2-[2-(1-methyl-1H-imidazol-4-yl)-ethylamino]-purin-9-yl}-5-(2-ethyl-2H-tetrazol-5-yl)-tetrahydro-furan-3,4-diol Acetate]	>256	0.14	34.4
Cn1nnc(C2OC(n3cnc4c(NCC(c5ccccc5)c5ccccc5)nc(NCCN5CCCCC5)nc43)C(O)C2O)n1.O=CO.O=CO (stereo not drawn) [Example 26]	>329	0.86	241.4

The next lines start with the values.

A3 EC50 as a ratio of that of NECA (adenosine 3 receptor)	A2a EC50 as a ratio of that of NECA (adenosine 2a receptor)	A1 EC50 as a ratio of that of NECA (adenosine 1 receptor)	Molecule
>181	4.12	102.00	CCn1nnc([C@H]2O[C@@H](n3cnc4c(NCc5cccc(I)c5)nc(NCCN5CCOCC5)nc43)[C@H](O)[C@@H]2O)n1 [Example 48, (2R,3S,4R,5R)-2-(2-Ethyl-2H-tetrazol-5-yl)-5-[6-(3-iodo-benzylamino)-2-(2-morpholin-4-yl-ethylamino)-purin-9-yl]-tetrahydro-furan-3,4-diol]
>89	4.53	>11750.00	CCC(CC)Nc1nc(NC2CCCC2O)nc2c1ncn2C1OC(c2nnn(C)n2)C(O)C1O.O=CO.O=CO [Example 88, (2R,3R,4S,5R)-2-[6-(1-Ethyl-propylamino)-2-(2R-hydroxy-(R)-cyclopentylamino)-purin-9-yl]-5-(2-methyl-2H-tetrazol-5-yl)-tetrahydro-furan-3,4-diol Diformate]
>315	0.99	1.9	Cn1nnc(C2OC(n3cnc4c(NC5CCCC5)nc(NC(CO)Cc5ccccc5)nc43)C(O)C2O)n1 [Example 36, (2R,3R,4S,5R)-2-[6-Cyclopentylamino-2-(1S-hydroxymethyl-2-phenyl-ethylamino)-purin-9-yl]-5-(2-methyl-2H-tetrazol-5-yl)-tetrahydro-furan-3,4-diol Formate]
>201	1.12	100.30	Cn1nnc(C2OC(n3cnc4c(NCc5cccc(I)c5)nc(NCCN5CCCCC5)nc43)C(O)C2O)n1 [Example 106, (2R,3R,4S,5R)-2-[6-(3-lodo-benzylamino)-2-(2-piperidin-1-yl-ethylamino)-purin-9-yl]-5-(2-methyl-2H-tetrazol-5-yl)-tetrahydro-furan-3,4-diol bis(Formate)]
>446	8.54	17.70	Cn1nnc(C2OC(n3cnc4c(NCc5cccc(I)c5)nc(NC(CO)Cc5ccccc5)nc43)C(O)C2O)n1 [Example 109, (2R,3R,4S,5R)-2-[2-(1S-Hydroxymethyl-2-phenyl-ethylamino)-6-(3-iodo-benzylamino)-purin-9-yl]-5-(2-methyl-2H-tetrazol-5-yl)-tetrahydro-furan-3,4-diol Formate]
>326	5.86	55.60	CC(C)n1nnc([C@H]2O[C@@H](n3cnc4c(N[C@H](CO)Cc5ccccc5)nc(NCCc5ccccn5)nc43)[C@H](O)[C@@H]2O)n1.O=CO [Example 63, (2R,3R,4S,5R)-2-[6-(1S-Hydroxymethyl-2-phenyl-ethylamino)-2-(2-pyridin-2-yl-ethylamino)-purin-9-yl]-5-(2-isopropyl-2H-tetrazol-5-yl)-tetrahydro-furan-3,4-diol Formate]
>158	6.48	848.50	CCn1nnc(C2OC(n3cnc4c(NCCC5CCCCC5)nc(NC5CCNC5)nc43)C(O)C2O)n1 [Example 72, (2R,3R,4S,5R)-2-[6-(2-Cyclohexyl-ethylamino)-2-(pyrrolidin-3R-ylamino)-purin-9-yl]-5-(2-ethyl-2H-tetrazol-5-yl)-tetrahydro-furan-3,4-diol Diformate]
>189	5.56	520.50	CCn1nnc(C2OC(n3cnc4c(NCC(c5ccccc5)c5ccccc5)nc(NCCNC(=N)N)nc43)C(O)C2O)n1 (stereo not drawn) [Example 82, N-(2-{6-(2,2-Diphenyl-ethylamino)-9-[5R-(2-ethyl-2H-tetrazol-5-yl)-3R,4S-Dihydroxy-tetrahydro-furan-2R-yl]-9H-purin-2-ylamino}-ethyl)-guanidine bis(Trifluoroacetate)]
>179	6.11	192.90	CCn1nnc(C2OC(n3cnc4c(NCCN5CCOCC5)nc(NC(CO)Cc5ccccc5)nc43)C(O)C2O)n1 [Example 85, (2R,3S,4R,5R)-2-(2-Ethyl-2H-tetrazol-5-yl)-5-[2-(1S-hydroxymethyl-2-phenyl-ethylamino)-6-(2-morpholin-4-yl-ethylamino)-purin-9-yl]-tetrahydro-furan-3,4-diol Formate]

— US6528494B2 (priority 1996, dated 2003)
